Where a SMILES comes first, the peptide text is derived from it. Bridges are numbered along the chain shown (N, C = ends).
Biological target: T1, human neutrophil elastase (HNE) (Homo sapiens, UniProt P08246)
T1 construct: purchased Sigma-Aldrich E8140
T1 sequence (P08246 30-267): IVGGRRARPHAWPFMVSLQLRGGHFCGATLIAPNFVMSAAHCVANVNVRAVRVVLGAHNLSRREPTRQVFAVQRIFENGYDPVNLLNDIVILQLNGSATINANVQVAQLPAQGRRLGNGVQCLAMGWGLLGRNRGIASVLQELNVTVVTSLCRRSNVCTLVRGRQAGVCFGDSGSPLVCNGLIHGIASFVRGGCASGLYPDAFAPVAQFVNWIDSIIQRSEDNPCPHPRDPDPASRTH
Experiment: Protease inhibition assay, human neutrophil elastase (chromogenic substrate, Dixon method)
Type: biochemical
Excerpt: Human neutrophils elastase (HNE, E8140), porcine pancreatic elastase (PPE, E0127), cathepsin G (CG, C4428), human trypsin (T6424), α-chymotrypsin from human pancreas (C8946), and thrombin from human plasma (T4393) were all purchased from Sigma-Aldrich (USA). Factor Xa (FXa, HFXa 1011) and Factor XIIa (FXIIa, HFXIIa 1212a) were from Enzyme Research Laboratories (South Bend, IN, USA). Kallikrein from human plasma (420307) was from Merck Millipore (Billerica, MA, USA).
Substrate for HNE and PPE (MeOSuc-Ala-Ala-Pro-Val-pNA, 324696) was purchased from Merck Millipore (USA). Substrates for CG (Succinyl-Ala-Ala-Pro-Phe-pNA, 573462), trypsin (Nalpha-Benzoyl-L-arginine 4-nitroanilide hydrochloride, B3133), FXa (CH3OCO-D-CHA-Gly-Arg-pNA-AcOH, F3301), chymotrypsin (N-Succinyl-Gly-Gly-Phe-pNA, S1899), thrombin (β-Ala-Gly-Arg-pNA diacetate, T3068), and kallikrein (Z-Phe-Arg 7-amido-4-methylcoumarin hydrochloride, C9521) were purchased from Sigma-Aldrich (USA).
As mentioned in our previous study, experiments for protease inhibitory activity were assayed in buffer (0.05 M Tris-HCl, pH 7.8) at 37 °C. […] At the end of the incubation, the reaction was initiated by the addition of the exclusive substrate solution and monitored by recording the absorbance at 405 nm every 30 s for 30 min. Enzyme activity in each well was calculated based on the initial slope of the reaction curve, and percentage of the initial slope of the uninhibited reaction was expressed. The inhibition constant Ki value was determined according to the Dixon method.

| SMILES | Ki [µM] |
| --- | --- |
| CC[C@H](C)[C@@H]1NC(=O)[C@H](C)NC(=O)[C@H](C)NC(=O)[C@@H]2CSSC[C@H](NC(=O)[C@H](CO)NC(=O)[C@H](CC(N)=O)NC(=O)[C@H](CO)NC(=O)[C@H](Cc3ccc(O)cc3)NC(=O)[C@H](CCSC)NC(=O)[C@H](CCCNC(=N)N)NC(=O)CNC(=O)[C@H](Cc3ccccc3)NC(=O)[C@H](CCC(=O)O)NC(=O)[C@H](CC(=O)O)NC(=O)[C@H](Cc3ccccc3)NC(=O)[C@H](C(C)C)NC(=O)[C@@H]3CCCN3C(=O)[C@H](CCC(N)=O)NC(=O)[C@H](Cc3ccc(O)cc3)NC1=O)C(=O)N[C@@H](CCC(=O)O)C(=O)N[C@@H](CCSC)C(=O)N[C@@H](CCC(N)=O)C(=O)N[C@@H](CCCNC(=N)N)C(=O)N[C@@H](C)C(=O)N[C@@H](CCCNC(=N)N)C(=O)N[C@H](C(=O)N[C@@H](CC(C)C)C(=O)N[C@@H](CCCNC(=N)N)C(=O)NCC(=O)O)CSSC[C@H](N)C(=O)N1CCC[C@H]1C(=O)N[C@@H](CCC(N)=O)C(=O)N[C@@H](C(C)C)C(=O)N2 [P6A] (H-CPQVCAAIYQPVFDEFGRMYSNSCEMQRARCLRG-OH; disulfide 1-31, 5-24) | 0.105 |
| CC[C@H](C)[C@@H]1NC(=O)[C@H](C)NC(=O)[C@@H]2CCCN2C(=O)[C@@H]2CSSC[C@H](NC(=O)[C@H](CO)NC(=O)[C@H](CC(N)=O)NC(=O)[C@H](C)NC(=O)[C@H](Cc3ccc(O)cc3)NC(=O)[C@H](CCSC)NC(=O)[C@H](CCCNC(=N)N)NC(=O)CNC(=O)[C@H](Cc3ccccc3)NC(=O)[C@H](CCC(=O)O)NC(=O)[C@H](CC(=O)O)NC(=O)[C@H](Cc3ccccc3)NC(=O)[C@H](C(C)C)NC(=O)[C@@H]3CCCN3C(=O)[C@H](CCC(N)=O)NC(=O)[C@H](Cc3ccc(O)cc3)NC1=O)C(=O)N[C@@H](CCC(=O)O)C(=O)N[C@@H](CCSC)C(=O)N[C@@H](CCC(N)=O)C(=O)N[C@@H](CCCNC(=N)N)C(=O)N[C@@H](C)C(=O)N[C@@H](CCCNC(=N)N)C(=O)N[C@H](C(=O)N[C@@H](CC(C)C)C(=O)N[C@@H](CCCNC(=N)N)C(=O)NCC(=O)O)CSSC[C@H](N)C(=O)N1CCC[C@H]1C(=O)N[C@@H](CCC(N)=O)C(=O)N[C@@H](C(C)C)C(=O)N2 [S21A] (H-CPQVCPAIYQPVFDEFGRMYANSCEMQRARCLRG-OH; disulfide 1-31, 5-24) | 0.0168 |
| CC[C@H](C)[C@@H]1NC(=O)[C@H](C)NC(=O)[C@@H]2CCCN2C(=O)[C@@H]2CSSC[C@H](NC(=O)[C@H](CO)NC(=O)[C@H](CC(N)=O)NC(=O)[C@H](CO)NC(=O)[C@H](Cc3ccc(O)cc3)NC(=O)[C@H](CCSC)NC(=O)[C@H](CCCNC(=N)N)NC(=O)CNC(=O)[C@H](Cc3ccccc3)NC(=O)[C@H](CCC(=O)O)NC(=O)[C@H](CC(=O)O)NC(=O)[C@H](Cc3ccccc3)NC(=O)[C@H](C(C)C)NC(=O)[C@@H]3CCCN3C(=O)[C@H](CCC(N)=O)NC(=O)[C@H](Cc3ccc(O)cc3)NC1=O)C(=O)N[C@@H](C)C(=O)N[C@@H](CCSC)C(=O)N[C@@H](CCC(N)=O)C(=O)N[C@@H](CCCNC(=N)N)C(=O)N[C@@H](C)C(=O)N[C@@H](CCCNC(=N)N)C(=O)N[C@H](C(=O)N[C@@H](CC(C)C)C(=O)N[C@@H](CCCNC(=N)N)C(=O)NCC(=O)O)CSSC[C@H](N)C(=O)N1CCC[C@H]1C(=O)N[C@@H](CCC(N)=O)C(=O)N[C@@H](C(C)C)C(=O)N2 [E25A] (H-CPQVCPAIYQPVFDEFGRMYSNSCAMQRARCLRG-OH; disulfide 1-31, 5-24) | > 1000 |
